Values of other authors as cited in patent publication EP0268927A2, “Resin-coated, non-sorptive granular, pesticidal compositions and method for the preparation thereof” (priority 1986, dated 1988).

System: rats
Conditions: technical grade

Q: For `CCOP(=S)(OCC)SCSCC` [phorate, 0,0-diethyl-S-(ethylthiomethyl)phosphorodithioate], which “acute oral LD50 value in rats” value is on record?
A: The value was 1.6-3.7 mg technical/kg.
